In patent US4812447A, “Method for the treatment of nervous system degeneration” (City of Hope, priority 1986, dated 1989):
Where a name gives a salt, the structure may show the parent alone.

Key:
[1] = system: human complement system, C4 component; settings: Koo, et al., Klin. Wochnschr, 61, 715 (1983); cited from earlier work
mice [2] = settings: cited from earlier work
[3] = oral; cited from earlier work
rats = settings: orally; cited from earlier work
[4] = system: astrocytes (GFAP^+ cells); assay: Example 3: fetal mouse brain cell culture, GFAP immunofluorescence of astrocytes / glial cells; type: cell-based, Swiss mouse; settings: for brilliance of astrocyte staining (GFAP per unit cell surface) / extent of astrocyte fiber extension / numbers of astrocytes: vs untreated cultures, GFAP staining; for development and maturation of glial processes: low concentrations, explants of fetal mouse brain in culture
Protocol: (§1) Cultures were prepared from finely chopped, mechanically dissociated brains from 14-day old Swiss mouse embryos. Cells were plated at a density of 3×10^5 cells/cm^2 on poly-D-lysine coated glass cover slips and maintained at 37° C. in an atmosphere of 5% CO2, 80% humidity in Dulbecco-modified ME medium supplemented with 10% fetal calf serum and containing penicillin. The medium was first changed at 5 days of culture, at which time DHEA and DHEAS was added in concentrations ranging from 10^-4 M to 10^-8 M to the experimental cultures, while the control cultures received only normal medium. The supplemented and control media were changed at 7 days and on the 9th day the cultures were fixed and immunostained by the indirect immunofluorescent method of Coons with rabbit antisera to neurofilament protein, specific for neurons, and to glial fibrillary acidic protein, which is specific for glial cells. Neuronal and glial cells identified by the above procedures subsequently will be designated as NF^+ and GFAP^+ cells.
(§2) Briefly, cultures were fixed by successive incubation at room temperature with 3.7% formaldehyde and 3.7% formaldehyde containing 0.2% Triton X-100, 10 min each, and incubation at 4° C. with acetone 50%, with acetone 100% and acetone 50%--2 min each. Incubation with the above-mentioned sera anti-cell markers appropriately diluted (1/20-1/30) was carried out at room temperature for 30 min.

mice [5] = settings: orally; cited from earlier work
NF^+ neurons = assay: Example 3: fetal mouse brain cell culture, neurofilament (NF) immunofluorescence of neurons; type: cell-based, Swiss mouse; settings: for survival of neurons, outgrowth of neuritic processes, establishment of connections between neurons: low concentrations, explants of fetal mouse brain in culture; for optimal concentration for effects on neurons: numbers, processes, connections and staining of NF^+ neurons
Protocol: as §1, §2

SDAT patients = assay: Example 1: treatment of SDAT patients over 75 years old with DHEAS; type: in vivo, human; settings: 500 mg three times per day for two months
Protocol: Four patients over 75 years old, suffering from SDAT and having well-documented, progressive SDAT symptoms, are selected. Two of the patients are given 500 mg of DHEAS three times per day for two months. The other two are given a placebo.

Structure (SMILES)	effect on human complement system, in particular C4 component [1]	incidence of breast cancer (mice [2])	obesity (mice [2])	absorption in the gut [3]	LD50 (rats)	brilliance of astrocyte staining (GFAP per unit cell surface) [4]	extent of astrocyte fiber extension [4]	numbers of astrocytes [4]	development and maturation of glial processes [4]	LD50 (mice [5])	survival of neurons, outgrowth of neuritic processes, establishment of connections between neurons (NF^+ neurons)	optimal concentration for effects on neurons (NF^+ neurons)	further results
C[C@]12CC[C@H](O)CC1=CC[C@@H]1[C@@H]2CC[C@]2(C)C(=O)CC[C@@H]12 [DHEA, dehydroepiandrosterone]	known to effect the human complement system	reduce the incidence of breast cancer	reduce obesity	readily absorbed in the gut	greater than 10,000 mg/kg	remarkable increase	remarkable increase	remarkable increase	enhanced greatly	greater than 10,000 mg/kg	remarkable effects in enhancing the survival of neurons	10^-7 M	apparent age after prolonged administration (mice [2]; prolonged administration): appear to be younger; connections between neurons and between neuronal clusters (NF^+ neurons; 10^-5 M-10^-8 M): Numerous connections appeared to be formed; neuronal clusters (NF^+ neurons; 10^-5 M-10^-8 M): greatly enlarged neuronal clusters; processes of NF^+ neurons (NF^+ neurons; 10^-5 M-10^-8 M): greatly extended, thickened, and intertwined; numbers of NF^+ neurons (NF^+ neurons; 10^-5 M-10^-8 M, by comparison with controls, fixed on 9th day): remarkable increases; brilliance of fluorescence of neurons and their processes (NF protein content) (NF^+ neurons; 10^-5 M-10^-8 M, in contrast to dull signal in controls): in marked contrast to the rather dull fluorescent signal observed in the controls; size of NF^+ neurons (NF^+ neurons; experimental cultures vs controls): larger than those seen in the controls
C[C@]12CC[C@H](OS(=O)(=O)O)CC1=CC[C@@H]1[C@@H]2CC[C@]2(C)C(=O)CC[C@@H]12 [DHEAS, dehydroepiandrosterone sulfate]	known to effect the human complement system	reduce the incidence of breast cancer	reduce obesity	readily absorbed in the gut	greater than 10,000 mg/kg	remarkable increase	remarkable increase	remarkable increase	enhanced greatly	greater than 10,000 mg/kg	remarkable effects in enhancing the survival of neurons	10^-8 M	cognitive ability (SDAT patients; 2 patients vs 2 placebo): significant improvements; memory (SDAT patients; 2 patients vs 2 placebo): significant improvements; speech (SDAT patients; 2 patients vs 2 placebo): significant improvements; signs of further SDAT-type deterioration (SDAT patients; placebo patients show continuing deterioration): No signs of further SDAT-type deterioration; effects on NF^+ neurons compared with those of DHEA (NF^+ neurons; 10^-4 M to 10^-8 M added): Effects similar to those above
